Measurements from US12668576B2, “Pyrazolamide derivative, preparation method therefor, and application thereof” (SHENZHEN ZHONGGE BIOLOGICAL TECHNOLOGY CO., LTD., priority 2021, dated 2026).

Target: T1, EP4 receptor (Homo sapiens, UniProt P35408)
T1 construct: expressed in transfected cells; host or cells: Flp-In CHO cells (Flpin-CHO-EP4)
Assay: Antagonist activity against EP4 receptor by cAMP assay
Assay type: cell-based
Settings: Flpin-CHO-EP4 cells, PGE2 stimulation, cAMP readout; starting concentration 5 μM, dilution factor 4
Protocol: Eu-CAMP tracer (1/50) was diluted with a lysis buffer and 10 μL was added to per well of the detection plate. Ulight-anti-CAMP (1/150) was diluted with the lysis buffer and 10 μL was added to per well of the detection plate, and incubated at room temperature for 1 h.

T1 sequence (P35408 whole entry): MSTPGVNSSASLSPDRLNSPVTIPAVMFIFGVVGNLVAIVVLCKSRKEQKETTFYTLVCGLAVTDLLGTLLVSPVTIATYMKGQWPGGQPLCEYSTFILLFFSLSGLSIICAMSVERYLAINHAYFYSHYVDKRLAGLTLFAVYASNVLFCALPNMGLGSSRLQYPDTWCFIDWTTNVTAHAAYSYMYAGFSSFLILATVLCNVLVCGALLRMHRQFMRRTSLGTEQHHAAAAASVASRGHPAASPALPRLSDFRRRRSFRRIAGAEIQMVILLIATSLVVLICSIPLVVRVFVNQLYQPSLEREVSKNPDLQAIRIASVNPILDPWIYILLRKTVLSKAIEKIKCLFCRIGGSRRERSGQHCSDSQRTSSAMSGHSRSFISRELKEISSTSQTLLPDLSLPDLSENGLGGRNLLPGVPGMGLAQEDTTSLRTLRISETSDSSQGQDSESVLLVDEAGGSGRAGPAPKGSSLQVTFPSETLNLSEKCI

IC50: 6.59 nM
SMILES: C[C@H](NC(=O)c1c(C(F)F)nn(C)c1Oc1cccc(S(F)(F)(F)(F)F)c1)c1ccc(C(=O)O)cc1 [Example 1, 4-(1-(3-(difluoromethyl)-1-methyl-5-(3-(pentafluorothio)phenoxy)-1H-pyrazole-4-carboxamido)ethyl)benzoic acid]
